≈ marks a conversion by molar mass, not a printed value.
Tests used:
[1] = Particle size distribution by laser diffraction; assay type: physicochemical; settings: dispersive pressure 3 bar
Description: Different crystal forms of linezolid were chosen and tested for their feasibility of suspension. Two crystal modifications (polymorphs) of Linezolid: Form II (FII) and Form III (FIII) were obtained from Symed labs Ltd (India). Approximately, 1 g each of FII and FIII was jet milled using a LaboMill jet miller (F.P.S. Food and Pharma Systems s.r.l, Italy) with an injection line pressure at 7 bar and the grind line at 4 bar. The particle size distribution of the raw and air-jet milled material was analyzed by laser diffraction (Sympatec GmbH, Helos Disperse). 5 mg of each sample was placed in a dry powder disperser (RODOS/M). A reference measurement was taken before running each sample for 5 sec at 2% optical concentration. The results were obtained at a pressure of 3 bars using lenses, R1 (0.18-0.35 μm) and R2 (0.25/0.45-87.5 μm) (Table 4). The data was collected using HELOS sensor and analyzed using Windox5 software.
The particle size distribution of the raw and air-jet milled material was analyzed by laser diffraction (Sympatec GmbH, Helos Disperse). The data on the size distribution for unmilled powder (R1) and milled powder (R4) were collected and analyzed. Air jet milling reduced the particle size from D10 4 to 6 μm (D10, 10% of the mass of the sample is comprised of particles with diameter less than this range) and D90 40 to 50 μm (D90, 90% of the mass of the sample is comprised of particles with is diameter less than this range) particle size distribution to a D10 0.4 to 0.50 μm and D90 4 to 5 μm.

[2] = Suspension of milled linezolid Form II and Form III in poloxamer vehicle; assay type: physicochemical; settings: 50 mg in one mL poloxamer vehicle, manual shaking one minute
Experimental: 50 mg of each form was weighed and one mL of poloxamer vehicle was added. The particles were re-suspended by manual shaking for one minute.

[3] = Gamma irradiation: appearance and chemical stability (UPLC)
[4] = Dry heat sterilization: appearance and chemical stability (UPLC)
[5] = test system: Gram-positive bacteria; settings: cited from earlier work
[6] = Nitrogen, no irradiation (—), Cold
[7] = Nitrogen, no irradiation (—), RT

CC(=O)NC[C@H]1CN(c2ccc(N3CCOCC3)c(F)c2)C(=O)O1 [FII, (S)—N-[[3-[3-fluoro-4-(4-morpholinyl)phenyl]-2-oxo-5-oxazolidinyl]methyl] acetamide]
Particle size distribution X10 ([1]; Jet milled): 0.61 ± 0.01 μm
Particle size distribution X50 ([1]; Jet milled): 1.79 ± 0.03 μm
Particle size distribution X90 ([1]; Jet milled): 3.95 ± 0.04 μm
VMD (Volume mean diameter in μm) ([1]; Jet milled): 2.07 μm
Particle size distribution X10 ([1]; Raw (pre-milled)): 0.94 μm
Particle size distribution X50 ([1]; Raw (pre-milled)): 3.79 μm
Particle size distribution X90 ([1]; Raw (pre-milled)): 44.75 μm
VMD (Volume mean diameter in μm) ([1]; Raw (pre-milled)): 14.70 μm
Suspension behaviour of air jet milled particles [2]: dispersed uniformly
Stability % 25° C. day 28 ([3]; Air, 15 KGy, Cold): 99.4%
Stability % 40° C. day 28 ([3]; Air, 15 KGy, Cold): 98.0%
Stability % t = 0 ([3]; Air, 15 KGy, Cold): 99%
Stability % 25° C. day 28 ([3]; Air, 15 KGy, RT): 99.4%
Stability % 40° C. day 28 ([3]; Air, 15 KGy, RT): 99.1%
Stability % t = 0 ([3]; Air, 15 KGy, RT): 99.5%
Stability % 25° C. day 28 ([3]; Air, 25 KGy, Cold): 99.6%
Stability % 40° C. day 28 ([3]; Air, 25 KGy, Cold): 99.7%
Stability % t = 0 ([3]; Air, 25 KGy, Cold): 100%
Stability % 25° C. day 28 ([3]; Air, 25 KGy, RT): 100%
Stability % 40° C. day 28 ([3]; Air, 25 KGy, RT): 98.9%
Stability % t = 0 ([3]; Air, 25 KGy, RT): 100%
Stability % 25° C. day 28 ([3]; Air, no irradiation (—), Cold): 98.1%
Stability % 40° C. day 28 ([3]; Air, no irradiation (—), Cold): 99.6%
Stability % t = 0 ([3]; Air, no irradiation (—), Cold): 100%
Stability % 25° C. day 28 ([3]; Air, no irradiation (—), RT): 99.5%
Stability % 40° C. day 28 ([3]; Air, no irradiation (—), RT): 100.1%
Stability % t = 0 ([3]; Air, no irradiation (—), RT): 100%
Stability % 25° C. day 28 ([3]; Nitrogen, 15 KGy, Cold): 97.5%
Stability % 40° C. day 28 ([3]; Nitrogen, 15 KGy, Cold): 99.3%
Stability % t = 0 ([3]; Nitrogen, 15 KGy, Cold): 100%
Stability % 25° C. day 28 ([3]; Nitrogen, 15 KGy, RT): 98.8%
Stability % 40° C. day 28 ([3]; Nitrogen, 15 KGy, RT): 99.5%
Stability % t = 0 ([3]; Nitrogen, 15 KGy, RT): 100%
Stability % 25° C. day 28 ([3]; Nitrogen, 25 KGy, Cold): 100%
Stability % 40° C. day 28 ([3]; Nitrogen, 25 KGy, Cold): 99.3%
Stability % t = 0 ([3]; Nitrogen, 25 KGy, Cold): 100%
Stability % 25° C. day 28 ([3]; Nitrogen, 25 KGy, RT): 99.6%
Stability % 40° C. day 28 ([3]; Nitrogen, 25 KGy, RT): 99.4%
Stability % t = 0 ([3]; Nitrogen, 25 KGy, RT): 100.5%
Stability % 25° C. day 28 [3, 6]: 99.6%
Stability % 40° C. day 28 [3, 6]: 99%
Stability % t = 0 [3, 6]: 100%
Stability % 25° C. day 28 [3, 7]: 98.7%
Stability % 40° C. day 28 [3, 7]: 97.7%
Stability % t = 0 [3, 7]: 99.5%
Appearance ([4]; dry heat 120° C., 20 hr): Powder
Chemical Stability % expected parent (2-8° C. (control) t = 0) ([4]; dry heat 120° C., 20 hr): 100%
Appearance ([4]; dry heat 120° C., 50 hr): Powder
Chemical Stability % expected parent (2-8° C. (control) t = 0) ([4]; dry heat 120° C., 50 hr): 99%
Appearance ([4]; dry heat 130° C., 8 hr): Yellow
Chemical Stability % expected parent (2-8° C. (control) t = 0) ([4]; dry heat 130° C., 8 hr): 39%
Appearance ([4]; dry heat 130° C., 20 hr): Yellow
Chemical Stability % expected parent (2-8° C. (control) t = 0) ([4]; dry heat 130° C., 20 hr): 26%
Appearance ([4]; dry heat 130° C., 50 hr): Yellow
Chemical Stability % expected parent (2-8° C. (control) t = 0) ([4]; dry heat 130° C., 50 hr): 19%
Appearance ([4]; dry heat 140° C., 4 hr): Yellow
Chemical Stability % expected parent (2-8° C. (control) t = 0) ([4]; dry heat 140° C., 4 hr): 52%
Appearance ([4]; dry heat 140° C., 8 hr): Powder
Chemical Stability % expected parent (2-8° C. (control) t = 0) ([4]; dry heat 140° C., 8 hr): 97%
Appearance ([4]; dry heat 140° C., 20 hr): Yellow
Chemical Stability % expected parent (2-8° C. (control) t = 0) ([4]; dry heat 140° C., 20 hr): 17%
Appearance ([4]; dry heat 160° C., 2 hr): Yellow
Chemical Stability % expected parent (2-8° C. (control) t = 0) ([4]; dry heat 160° C., 2 hr): 16%

CC(=O)NC[C@H]1CN(c2ccc(N3CCOCC3)c(F)c2)C(=O)O1 [FIII]
Particle size distribution X10 ([1]; Jet milled): 0.63 ± 0.01 μm
Particle size distribution X50 ([1]; Jet milled): 2.06 ± 0.02 μm
Particle size distribution X90 ([1]; Jet milled): 4.50 ± 0.12 μm
VMD (Volume mean diameter in μm) ([1]; Jet milled): 2.38 μm
Particle size distribution X10 ([1]; Raw (pre-milled)): 1.03 μm
Particle size distribution X50 ([1]; Raw (pre-milled)): 4.33 μm
Particle size distribution X90 ([1]; Raw (pre-milled)): 11.46 μm
VMD (Volume mean diameter in μm) ([1]; Raw (pre-milled)): 5.52 μm
Suspension behaviour of air jet milled particles ([2]; listed as Form III): formed lumps and were not evenly distributed

CC(=O)NC[C@H]1CN(c2ccc(N3CCOCC3)c(F)c2)C(=O)O1 [Linezolid, (S)—N-[[3-[3-fluoro-4-(4-morpholinyl)phenyl]-2-oxo-5-oxazolidinyl]methyl] acetamide]
MIC [5]: 4 µg/mL (≈ 11.9 µM)

From US11517574B2 (priority 2017, dated 2022)
